Experiments:
[1] = test system: HDAC isoforms; details: cited from earlier work
[2] = test system: LNCaP; details: cited from earlier work
[3] = test system: PC-3; details: cited from earlier work
[4] = test system: NCI 60 cell line assay (leukemia, non-small cell lung cancer, colon cancer, CNS cancer, melanoma, ovarian cancer, renal cancer, prostate cancer, and breast …); test: NCI 60 cell line assay, cell proliferation inhibition; assay type: cell-based, human; details: for anti-proliferative activity compared with largazole: 5 μM concentration; for inhibition of cell survival compared with largazole: at 5 μM; for inhibitory activity compared with largazole: at lower concentrations (below 5 μM)
Protocol: Understanding how these compounds affect cellular HDAC activity is important. Therefore, the biological effects of all these analogues were evaluated. As described in the examples, the analogues JA1-JA6, AA1-AA2, and RF1 were tested in the NCI 60 cell line assay, which includes leukemia, non-small cell lung cancer, colon cancer, CNS cancer, melanoma, ovarian cancer, renal cancer, prostate cancer, and breast cancer cell lines. […] The analogues were tested in the NCI 60 cell line assay using standard assay protocol. The NCI 60 cell line assay includes leukemia, non-small cell lung cancer, colon cancer, CNS cancer, melanoma, ovarian cancer, renal cancer, prostate cancer, and breast cancer cell lines. Results of the cell proliferation inhibition studies at a single dose of 10 μM are shown in FIGS. 16-21, and FIGS. 26-27, and results of the dose response studies for JA1, JA2, and J3 are shown in FIGS. 22-24. FIGS. 26-27 show the results of single dose response evaluations of AA1 and AA2, respectively, in the NCI 60 cell line assay.

Row | Structure (SMILES) | anti-proliferative activity compared with largazole [4] | inhibition of cell survival compared with largazole [4] | inhibitory activity compared with largazole [4] | other results
1 | CCCCCCCC(=O)SCCC=CC1CC(=O)NCc2nc(cs2)C2=NC(C)(CS2)C(=O)NC(C(C)C)C(=O)O1 (centres unmarked) [C-2 epimer of largazole] | – | – | – | inhibitory potency against HDAC isoforms [1]: sub-micromolar; inhibition of viability compared with largazole [2]: more potent than largazole; inhibition of viability compared with largazole [3]: more potent than largazole
2 | CCCCCCCC(=O)SCC/C=C/[C@@H]1CC(=O)NCCOCCOCC(=O)N[C@@H](C(C)C)C(=O)O1 [JA1] | equivalent to largazole | nearly as effectively as largazole | less inhibitory activity | –
3 | CCCCCCCC(=O)SCC/C=C/[C@@H]1CC(=O)NCc2cccc(n2)-c2cccc(n2)C(=O)N[C@@H](C(C)C)C(=O)O1 [JA2] | – | – | – | potency rank among the analogues [4]: most potent analogue; anti-proliferative activity compared to largazole ([4]; at concentrations greater than 0.1 μM): higher anti-proliferative activity compared to largazole
4 | CCCCCCCC(=O)SCC/C=C/[C@@H]1CC(=O)NCc2cccc(n2)CN(C)CC(=O)N[C@@H](C(C)C)C(=O)O1 [JA3] | equivalent to largazole | nearly as effectively as largazole | less inhibitory activity | –

— patent publication US9469656B2, “HDAC inhibitors as anti-cancer agents” (The University of Toledo, priority 2014, dated 2016)
